Experimental findings from patent US20250325534A1, “MICROBIOCIDAL TETRAHYDROISOQUINOLINE DERIVATIVES” (SYNGENTA CROP PROTECTION AG, priority 2021, published 2025) are described below.

A value given as a limit tells only on which side of the number the result lay.

For this assay, the system named is Mycosphaerella graminicola. Put plainly: Mycosphaerella graminicola (Septoria tritici) / liquid culture (Septoria blotch). Conditions: Zymoseptoria tritici, 96 h, photometrically 4-5 days after application, read-out: control of Mycosphaerella graminicola. The assay is classed as cell-based. As to the method: Example B19: Mycosphaerella graminicola (Septoria tritici)/Liquid Culture (Septoria Blotch) Conidia of the fungus from cryogenic storage are directly mixed into a nutrient broth (potato dextrose broth). After placing a DMSO solution of test compound into a microtiter plate (96-well format), the nutrient broth containing the fungal spores is added. The test plates are incubated at 24° C. and the inhibition of growth is determined photometrically 4-5 days after application.
As to `COc1ccc2c(c1)C(c1cnn(C)c1)CN(C(=O)c1cc(-c3ccc(F)cc3F)on1)C2` (stereo not shown) [Compound P-66, [5-(2,4-difluorophenyl)isoxazol-3-yl]-[6-methoxy-4-(1-methylpyrazol-4-yl)-3,4-dihydro-1H-isoquinolin-2-yl]methanone], the inhibition of growth at 20 ppm was no less than 80%.

Take `Cn1cc(C2CN(C(=O)c3cc(C(C)(C)C)no3)Cc3ccccc32)cn1` (stereo not shown) [Compound P-83, (3-tert-butylisoxazol-5-yl)-[4-(1-methylpyrazol-4-yl)-3,4-dihydro-1H-isoquinolin-2-yl]methanone]: the inhibition of growth at 20 ppm was no less than 80%.

With `Cc1c(C2CN(C(=O)c3cc(C4CC4)on3)Cc3ccccc32)cnn1C` (stereo not shown) [Compound P-237, (5-cyclopropylisoxazol-3-yl)-[4-(1,5-dimethylpyrazol-4-yl)-3,4-dihydro-1H-isoquinolin-2-yl]methanone], the inhibition of growth at 20 ppm is no less than 80%. Under `Cn1cc(C2CN(C(=O)c3coc(-c4ccc(F)cc4)n3)Cc3ccccc32)cn1` (stereo not shown) [Compound P-69, [2-(4-fluorophenyl)oxazol-4-yl]-[4-(1-methylpyrazol-4-yl)-3,4-dihydro-1H-isoquinolin-2-yl]methanone] stands no less than 80%. Regarding `COc1cccc(-c2cc(C(=O)N3Cc4ccccc4C(c4cnn(C)c4)C3)no2)c1` (stereo not shown) [Compound P-167, [5-(3-methoxyphenyl)isoxazol-3-yl]-[4-(1-methylpyrazol-4-yl)-3,4-dihydro-1H-isoquinolin-2-yl]methanone], the inhibition of growth at 20 ppm is no less than 80%.

On to `C[C@@H]1c2ccccc2[C@](C)(c2cnn(C)c2)CN1C(=O)c1cc(-c2ccc(F)cc2F)on1` (single isomer, unassigned) [Compound P-7], for which the inhibition of growth at 20 ppm was no less than 80%. Under `Cn1cc(C2CN(C(=O)c3cc(-c4ccc(S(C)(=O)=O)cc4F)on3)Cc3ccccc32)cn1` (stereo not shown) [Compound P-20, [5-(2-fluoro-4-methylsulfonyl-phenyl)isoxazol-3-yl]-[4-(1-methylpyrazol-4-yl)-3,4-dihydro-1H-isoquinolin-2-yl]methanone] stands no less than 80%. `Cc1c(C2CN(C(=O)c3cc(C4CCCC4)on3)Cc3ccccc32)cnn1C` (stereo not shown) [Compound P-235, (5-cyclopentylisoxazol-3-yl)-[4-(1,5-dimethylpyrazol-4-yl)-3,4-dihydro-1H-isoquinolin-2-yl]methanone]: the inhibition of growth at 20 ppm is no less than 80%.

Regarding `Cn1cc(C2CN(C(=O)c3cc(-c4ccccc4)ns3)Cc3ccccc32)cn1` (stereo not shown) [Compound P-161, [4-(1-methylpyrazol-4-yl)-3,4-dihydro-1H-isoquinolin-2-yl]-(3-phenylisothiazol-5-yl)methanone], the inhibition of growth at 20 ppm was no less than 80%. For the molecule `CC(C)C1(c2cnn(C)c2)CN(C(=O)c2cc(-c3ccc(F)cc3F)on2)Cc2ccccc21` (stereo not shown) [Compound P-219, [5-(2,4-difluorophenyl)isoxazol-3-yl]-[4-isopropyl-4-(1-methylpyrazol-4-yl)-1,3-dihydroisoquinolin-2-yl]methanone], the inhibition of growth at 20 ppm is no less than 80%. Under `CCC(C)c1cc(C(=O)N2Cc3ccccc3C(c3cnn(C)c3)C2)on1` (stereo not shown) [Compound P-88, [4-(1-methylpyrazol-4-yl)-3,4-dihydro-1H-isoquinolin-2-yl]-(3-sec-butylisoxazol-5-yl)methanone] stands no less than 80%; under `CC1c2ccc(OC(F)F)cc2C(C)(c2cnn(C)c2)CN1C(=O)c1cc(-c2ccccc2)on1` (stereo not shown) [Compound P-28, [6-(difluoromethoxy)-1,4-dimethyl-4-(1-methylpyrazol-4-yl)-1,3-dihydroisoquinolin-2-yl]-(5-phenylisoxazol-3-yl)methanone], no less than 80%; under `Cn1cc(C2CN(C(=O)c3cc(-c4c(F)cc(F)cc4F)no3)Cc3ccccc32)cn1` (stereo not shown) [Compound P-129, [4-(1-methylpyrazol-4-yl)-3,4-dihydro-1H-isoquinolin-2-yl]-[3-(2,4,6-trifluorophenyl)isoxazol-5-yl]methanone], no less than 80%. Under `Cc1nn(C)c(C)c1C1c2ccccc2CN(C(=O)c2cc(-c3ccc(F)cc3F)on2)C1C` (stereo not shown) [Compound P-113, [5-(2,4-difluorophenyl)isoxazol-3-yl]-[3-methyl-4-(1,3,5-trimethylpyrazol-4-yl)-3,4-dihydro-1H-isoquinolin-2-yl]methanone] stands no less than 80%; under `Cn1cc(C2CN(C(=O)c3cc(C4CC4)on3)Cc3ccccc32)cn1` (stereo not shown) [Compound P-202, (5-cyclopropylisoxazol-3-yl)-[4-(1-methylpyrazol-4-yl)-3,4-dihydro-1H-isoquinolin-2-yl]methanone], no less than 80%. Regarding `Cn1cc(C2CN(C(=O)c3cc(C4(C)CC4)on3)Cc3ccccc32)cn1` (stereo not shown) [Compound P-184, [5-(1-methylcyclopropyl)isoxazol-3-yl]-[4-(1-methylpyrazol-4-yl)-3,4-dihydro-1H-isoquinolin-2-yl]methanone], the inhibition of growth at 20 ppm is no less than 80%. Take `Cn1cc(C2CN(C(=O)c3cc(-c4ccccc4)on3)Cc3cc(C(F)(F)F)ccc32)cn1` (stereo not shown) [Compound P-103, [4-(1-methylpyrazol-4-yl)-7-(trifluoromethyl)-3,4-dihydro-1H-isoquinolin-2-yl]-(5-phenylisoxazol-3-yl)methanone]: the inhibition of growth at 20 ppm is no less than 80%. Then `Cn1cc(C2CN(C(=O)c3noc(-c4cc(F)ccc4F)n3)Cc3ccccc32)cn1` (stereo not shown) [Compound P-90, [5-(2,5-difluorophenyl)-1,2,4-oxadiazol-3-yl]-[4-(1-methylpyrazol-4-yl)-3,4-dihydro-1H-isoquinolin-2-yl]methanone], with no less than 80%; and `Cn1cc(C2CN(C(=O)c3coc(-c4ccccc4)c3)Cc3ccccc32)cn1` (stereo not shown) [Compound P-147, [4-(1-methylpyrazol-4-yl)-3,4-dihydro-1H-isoquinolin-2-yl]-(5-phenyl-3-furyl)methanone], with no less than 80%.

As to `CC1c2ccc(OCC(F)(F)F)cc2C(C)(c2cnn(C)c2)CN1C(=O)c1cc(-c2ccccc2)on1` (stereo not shown) [Compound P-27, [1,4-dimethyl-4-(1-methylpyrazol-4-yl)-6-(2,2,2-trifluoroethoxy)-1,3-dihydroisoquinolin-2-yl]-(5-phenylisoxazol-3-yl)methanone], the inhibition of growth at 20 ppm was no less than 80%. Then `CCc1nnc(C(=O)N2Cc3ccccc3C(c3cnn(C)c3C)C2)s1` (stereo not shown) [Compound P-244, [4-(1,5-dimethylpyrazol-4-yl)-3,4-dihydro-1H-isoquinolin-2-yl]-(5-ethyl-1,3,4-thiadiazol-2-yl)methanone], with no less than 80%; and `Cn1cc(C2CN(C(=O)c3cc(-c4ccc(F)cc4F)on3)C(c3ccccc3)c3ccccc32)cn1` (stereo not shown) [Compound P-43, [5-(2,4-difluorophenyl)isoxazol-3-yl]-[4-(1-methylpyrazol-4-yl)-1-phenyl-3,4-dihydro-1H-isoquinolin-2-yl]methanone], with no less than 80%; and `Cn1cc(C2CN(C(=O)c3cc(-c4ccc(F)cc4F)on3)Cc3ccc(C(F)(F)F)cc32)cn1` (stereo not shown) [Compound P-112, [5-(2,4-difluorophenyl)isoxazol-3-yl]-[4-(1-methylpyrazol-4-yl)-6-(trifluoromethyl)-3,4-dihydro-1H-isoquinolin-2-yl]methanone], with no less than 80%. Then `CCn1nc(C)c(C2CN(C(=O)c3cc(-c4ccc(F)cc4F)on3)Cc3ccccc32)c1C` (stereo not shown) [Compound P-116, [5-(2,4-difluorophenyl)isoxazol-3-yl]-[4-(1-ethyl-3,5-dimethyl-pyrazol-4-yl)-3,4-dihydro-1H-isoquinolin-2-yl]methanone], with no less than 80%; and `Cc1c([C@H]2CN(C(=O)c3cc(-c4ccc(F)cc4F)on3)[C@@H](C)c3ccccc32)cnn1C` (racemic) [Compound P-242, [5-(2,4-difluorophenyl)isoxazol-3-yl]-[rac-(1S,4S)-4-(1,5-dimethylpyrazol-4-yl)-1-methyl-3,4-dihydro-1H-isoquinolin-2-yl]methanone], with no less than 80%; and `CCC1c2ccccc2C(c2cnn(C)c2)CN1C(=O)c1cc(-c2ccccc2)on1` (stereo not shown) [Compound P-37, [1-ethyl-4-(1-methylpyrazol-4-yl)-3,4-dihydro-1H-isoquinolin-2-yl]-(5-phenylisoxazol-3-yl)methanone], with no less than 80%. With `COC(=O)C1c2ccccc2C(c2cnn(C)c2)CN1C(=O)c1cc(-c2ccccc2)on1` (stereo not shown) [Compound P-41, methyl 4-(1-methylpyrazol-4-yl)-2-(5-phenylisoxazole-3-carbonyl)-3,4-dihydro-1H-isoquinoline-1-carboxylate], the inhibition of growth at 20 ppm was no less than 80%. Under `COC(=O)c1ccc2c(c1)C(c1cnn(C)c1)CN(C(=O)c1cc(-c3ccc(F)cc3F)on1)C2` (stereo not shown) [Compound P-61, methyl 2-[5-(2,4-difluorophenyl)isoxazole-3-carbonyl]-4-(1-methylpyrazol-4-yl)-3,4-dihydro-1H-isoquinoline-6-carboxylate] stands no less than 80%. As to `Cc1c(C2CN(C(=O)c3nnc(C4CC4)s3)Cc3ccccc32)cnn1C` (stereo not shown) [Compound P-233, (5-cyclopropyl-1,3,4-thiadiazol-2-yl)-[4-(1,5-dimethylpyrazol-4-yl)-3,4-dihydro-1H-isoquinolin-2-yl]methanone], the inhibition of growth at 20 ppm was no less than 80%. Under `Cn1cc(C2CN(C(=O)c3cc(-c4ccc(F)c(F)c4F)on3)Cc3ccccc32)cn1` (stereo not shown) [Compound P-144, [4-(1-methylpyrazol-4-yl)-3,4-dihydro-1H-isoquinolin-2-yl]-[5-(2,3,4-trifluorophenyl)isoxazol-3-yl]methanone] stands no less than 80%; under `Cn1cc(C2CN(C(=O)c3cc(C(C)(C)C)on3)Cc3ccccc32)cn1` (stereo not shown) [Compound P-195, (5-tert-butylisoxazol-3-yl)-[4-(1-methylpyrazol-4-yl)-3,4-dihydro-1H-isoquinolin-2-yl]methanone], no less than 80%.
